SMILES strings stand for the structures.

The assay concerns the target recombinant DYRK1A kinase (Homo sapiens, UniProt Q13627). Description: DYRK1A kinase assay (Ser/Thr 18 peptide Z-lyte FRET). Format: biochemical. The settings on record: DYRK1A 0.25 μg/mL, ATP 15 μM, Ser/Thr peptide 18 4 μM, one hour at room temperature, 11-point dose-response from 10 μM.
For the molecule `CNc1nc(N[C@@H]2CCN(C)CC2(F)F)nn2cc(F)c(-c3ccc4nnn(CC(F)F)c4n3)c12` [Compound 291, (R)—N^2-(3,3-Difluoro-1-methylpiperidin-4-yl)-5-(3-(2,2-difluoroethyl)-3H-[1,2,3]triazolo[4,5-b]pyridin-5-yl)-6-fluoro-N^4-methylpyrrolo[2,1-f][1,2,4]triazine-2,4-diamine], the IC50 stood at 1.2 nM.

As for `CNc1nc(N[C@@H]2CCN(C(C)=O)CC2(F)F)nn2cc(F)c(-c3ccc4nnn(CC(F)F)c4n3)c12` [Compound 293, (R)-1-(4-((5-(3-(2,2-Difluoroethyl)-3H-[1,2,3]triazolo[4,5-b]pyridin-5-yl)-6-fluoro-4-(methylamino)pyrrolo[2,1-f][1,2,4]triazin-2-yl)amino)-3,3-difluoropiperidin-1-yl)ethan-1-one], the IC50 was 1.9 nM.

With `CNc1nc(N[C@@H]2CCN(C3COC3)CC2(F)F)nn2cc(F)c(-c3ccc4nnn(CC(F)F)c4n3)c12` [Compound 295, (R)—N^2-(3,3-Difluoro-1-(oxetan-3-yl)piperidin-4-yl)-5-(3-(2,2-difluoroethyl)-3H-[1,2,3]triazolo[4,5-b]pyridin-5-yl)-6-fluoro-N^4-methylpyrrolo[2,1-f][1,2,4]triazine-2,4-diamine], the IC50 was determined as 1.4 nM.

Consider `CNc1nc(N[C@H]2CCN(C)C[C@H]2F)nn2ccc(-c3ccc4nnn(CCCF)c4n3)c12` [Compound 333, N^2-((3R,4S)-3-Fluoro-1-methylpiperidin-4-yl)-5-(3-(3-fluoropropyl)-3H-[1,2,3]triazolo[4,5-b]pyridin-5-yl)-N^4-methylpyrrolo[2,1-f][1,2,4]triazine-2,4-diamine], for which the IC50 is 11.2 nM.

`CNc1nc(N[C@H]2CCN(C(C)=O)C[C@H]2F)nn2ccc(-c3ccc4nnn(CCCF)c4n3)c12` [Compound 335, 1-((3R,4S)-3-Fluoro-4-((5-(3-(3-fluoropropyl)-3H-[1,2,3]triazolo[4,5-b]pyridin-5-yl)-4-(methylamino)pyrrolo[2,1-f][1,2,4]triazin-2-yl)amino)piperidin-1-yl)ethan-1-one]: the IC50 turned out to be 3.4 nM.

Take `CNc1nc(N[C@H]2CCN(C3COC3)C[C@H]2F)nn2ccc(-c3ccc4nnn(CCCF)c4n3)c12` [Compound 337, N^2-((3R,4S)-3-Fluoro-1-(oxetan-3-yl)piperidin-4-yl)-5-(3-(3-fluoropropyl)-3H-[1,2,3]triazolo[4,5-b]pyridin-5-yl)-N^4-methylpyrrolo[2,1-f][1,2,4]triazine-2,4-diamine]: the IC50 is 4.4 nM.

`CNc1nc(N[C@@H]2CCN(C)CC2(F)F)nn2ccc(-c3ccc4nnn(CCCF)c4n3)c12` [Compound 338, (R)—N^2-(3,3-Difluoro-1-methylpiperidin-4-yl)-5-(3-(3-fluoropropyl)-3H-[1,2,3]triazolo[4,5-b]pyridin-5-yl)-N^4-methylpyrrolo[2,1-f][1,2,4]triazine-2,4-diamine]: the IC50 came out at 3.1 nM.

For `CNc1nc(N[C@@H]2CCN(C(C)=O)CC2(F)F)nn2ccc(-c3ccc4nnn(CCCF)c4n3)c12` [Compound 339, (R)-1-(3,3-Difluoro-4-((5-(3-(3-fluoropropyl)-3H-[1,2,3]triazolo[4,5-b]pyridin-5-yl)-4-(methylamino)pyrrolo[2,1-f][1,2,4]triazin-2-yl)amino)piperidin-1-yl)ethan-1-one], the IC50 was 3.5 nM.

With `CCNc1nc(N[C@H]2CCN(C3COC3)C[C@H]2F)nn2ccc(-c3ccc4nnn(CC(F)F)c4n3)c12` [Compound 403, 5-(3-(2,2-Difluoroethyl)-3H-[1,2,3]triazolo[4,5-b]pyridin-5-yl)-N^4-ethyl-N^2-((3R,4S)-3-fluoro-1-(oxetan-3-yl)piperidin-4-yl)pyrrolo[2,1-f][1,2,4]triazine-2,4-diamine], the IC50 stood at 4.2 nM.

For `CC(C)Nc1nc(N[C@H]2CCN(C3COC3)C[C@H]2F)nn2ccc(-c3ccc4nnn(CC(F)F)c4n3)c12` [Compound 411, 5-(3-(2,2-Difluoroethyl)-3H-[1,2,3]triazolo[4,5-b]pyridin-5-yl)-N^2-((3R,4S)-3-fluoro-1-(oxetan-3-yl)piperidin-4-yl)-N^4-isopropylpyrrolo[2,1-f][1,2,4]triazine-2,4-diamine], the IC50 stood at 9.7 nM.

Consider `FC(F)Cn1nnc2ccc(-c3ccn4nc(N[C@H]5CCN(C6COC6)C[C@H]5F)nc(NC5CC5)c34)nc21` [Compound 419, N^4-Cyclopropyl-5-(3-(2,2-difluoroethyl)-3H-[1,2,3]triazolo[4,5-b]pyridin-5-yl)-N^2-((3R,4S)-3-fluoro-1-(oxetan-3-yl)piperidin-4-yl)pyrrolo[2,1-f][1,2,4]triazine-2,4-diamine], for which the IC50 is 8.2 nM.

The record behind these values is patent US20250340575A1, “4-AMINOPYRROLO[2,1-F][1,2,4]TRIAZINES AND PREPARATION AND USES THEREOF” (Biosplice Therapeutics, Inc., priority 2024, published 2025).
